Laboratory results: US20070066801A1 (priority 2003, published 2007)

Key:
[1] = tested on: F. philomiragia; assay type: binding, Francisella philomiragia
[2] = tested on: F. tularensis LVS; assay type: binding, Francisella tularensis
[3] = tested on: Staphylococcus aureus (ATCC 6538); assay type: binding
[4] = tested on: F. novicida; assay type: binding, Francisella novicida
[5] = tested on: E. coli DH5α; assay type: binding
[6] = tested on: Enterococcus hirae (ATCC 8043); assay type: binding
[7] = tested on: F. philomiragia; assay type: binding, Francisella philomiragia; remark: listed apart in the source
[8] = tested on: F. tularensis LVS; assay type: binding, Francisella tularensis; remark: listed apart in the source
[9] = tested on: F. novicida; assay type: binding, Francisella novicida; remark: listed apart in the source

Sequence	effect of trypsin digestion of the bacterial surface on phage binding to F. philomiragia [1]	phage binding to F. tularensis LVS in 0.1×PBS [2]	ratio of phage binding to F. tularensis LVS compared to F. philomiragia [2]	phage binding to F. novicida in 0.1×PBS [4]	ratio of phage binding to F. novicida compared to F. philomiragia [4]	phage binding to F. philomiragia in 0.1×PBS [7]	effect of trypsin digestion of the bacterial surface on phage binding to F. tularensis LVS [8]	effect of added peptide on binding of phage 4-4-2 to F. novicida [9]	other results
TSITPWFFLSRP [phage 4-4-2]	small but reproducible increase in binding	Neither phage expressing peptides having the sequence of SEQ ID NO: 2 (phage 4-4-2) or SEQ ID NO: 4 (OV1 negative control) bound	> 100 fold	Neither phage expressing peptides having the sequence of SEQ ID NO: 2 (phage 4-4-2) or SEQ ID NO: 4 (OV1 negative control) bound	> 100 fold	Neither phage expressing peptides having the sequence of SEQ ID NO: 2 (phage 4-4-2) or SEQ ID NO: 4 (OV1 negative control) bound	distinct trypsin sensitivity	–	binding specificity of phage in Tris-Mg buffer [2]: showed specificity for the identification of F. tularensis LVS; effect of growth on TSB (versus Chamberlain minimal medium) on phage binding to F. tularensis LVS [2]: stimulatory effect observed with F. tularensis LVS was not as great; number of phage binding F. tularensis LVS in 1×PBS buffer (versus Tris-Mg) [2]: not decreased significantly; level of binding to S. aureus, fold lower than phage binding to F. novicida and F. tularensis LVS [3]: 20-100 fold; amount of phage binding to F. novicida in 1×PBS buffer (versus Tris-Mg) [4]: increased; effect of growth on TSB (versus Chamberlain minimal medium) on phage binding to F. novicida [4]: stimulated binding; level of binding to E. coli, fold lower than phage binding to F. novicida and F. tularensis LVS [5]: 20-100 fold; level of binding to E. hirae, fold lower than phage binding to F. novicida and F. tularensis LVS [6]: 20-100 fold; phage binding to F. tularensis LVS after trypsin digestion, relative to no trypsin [8]: 10-20%
LPISNPLPIKRS [SEQ ID NO: 3]	–	–	no specific binding	–	–	–	–	–	–
TSITPWFFLSRP [p442]	–	–	–	–	–	–	–	decreased binding of phage 4-4-2	–
TGRHTPWPHFMP [OV1, reference compound]	increase in binding after trypsin treatment	Neither phage expressing peptides having the sequence of SEQ ID NO: 2 (phage 4-4-2) or SEQ ID NO: 4 (OV1 negative control) bound	approximately equal binding	Neither phage expressing peptides having the sequence of SEQ ID NO: 2 (phage 4-4-2) or SEQ ID NO: 4 (OV1 negative control) bound	approximately equal binding	Neither phage expressing peptides having the sequence of SEQ ID NO: 2 (phage 4-4-2) or SEQ ID NO: 4 (OV1 negative control) bound	increase in binding after trypsin treatment	–	phage binding to F. novicida in Tris-Mg buffer [4]: equal to or greater than the binding of phage 4-4-2; phage binding to F. philomiragia in 1×PBS buffer [7]: equal to the binding of phage 4-4-2; phage binding to F. philomiragia in Tris-Mg buffer [7]: equal to or greater than the binding of phage 4-4-2
SLFWTIPIPSFR [p442S, reference compound]	–	–	–	–	–	–	–	did not inhibit the binding of phage 4-4-2	–
